Results on 13 compounds are retold here after patent publication US10494363B2, “Non-steroidal glucocorticoid receptor modulators for local drug delivery” (LEO PHARMA A/S, priority 2015, dated 2019).

Broadly, the IC50 is the point on the concentration scale where inhibition reaches its midpoint. In general, EC50 refers to the concentration that produces a half-maximal response.

The structures appear in SMILES notation.

Data set [1] deals with T1, glucocorticoid receptor (GR), recombinant full-length receptor protein (Homo sapiens, UniProt P04150).
T1 construct: 4 nM recombinant, full-length receptor protein was incubated with increasing concentrations of GR ligand; purchased Life Technologies A-15897
T1 sequence (P04150 1-777): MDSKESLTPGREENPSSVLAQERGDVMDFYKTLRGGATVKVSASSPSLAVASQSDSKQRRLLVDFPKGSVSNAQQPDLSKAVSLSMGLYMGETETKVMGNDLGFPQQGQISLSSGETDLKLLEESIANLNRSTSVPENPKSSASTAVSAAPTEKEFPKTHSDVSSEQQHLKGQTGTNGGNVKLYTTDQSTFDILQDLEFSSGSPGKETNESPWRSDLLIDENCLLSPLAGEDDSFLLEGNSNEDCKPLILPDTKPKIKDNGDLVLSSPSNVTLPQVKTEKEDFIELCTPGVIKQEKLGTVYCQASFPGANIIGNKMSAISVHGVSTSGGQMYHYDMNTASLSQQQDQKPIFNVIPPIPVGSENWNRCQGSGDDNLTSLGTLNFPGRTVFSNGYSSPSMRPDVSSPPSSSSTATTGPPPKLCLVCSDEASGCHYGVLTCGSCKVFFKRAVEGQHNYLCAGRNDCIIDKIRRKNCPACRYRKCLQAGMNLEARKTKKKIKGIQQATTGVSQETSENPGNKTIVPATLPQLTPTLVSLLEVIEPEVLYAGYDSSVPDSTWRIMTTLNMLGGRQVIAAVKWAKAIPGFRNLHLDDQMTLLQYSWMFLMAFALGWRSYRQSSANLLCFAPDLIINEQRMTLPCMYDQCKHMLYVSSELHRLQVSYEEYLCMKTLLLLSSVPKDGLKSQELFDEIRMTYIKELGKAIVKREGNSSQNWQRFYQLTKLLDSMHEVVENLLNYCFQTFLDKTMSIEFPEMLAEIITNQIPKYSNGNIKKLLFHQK
In words: Glucocorticoid receptor binding assay (fluorescence polarization kit). To be noted: 4 nM receptor, 2.5 nM Fluormone GS1 tracer, 2h room temperature, read-out: GR binding ABS IC50. How it is done: Test compounds were diluted in DMSO over seven orders of magnitude, further diluted in assay buffer and distributed into 384-well plates. The sensitivity limit of this assay was 2-4 nM.
Data were processed by sigmoidal curve fitting.
Absolute (Abs) IC50 and Emax were determined from the curve fits.

Data set [2] in a line: Human liver microsomes (HLM) assay. It counts as in vitro ADME. Particulars: hepatic extraction ratio; 0.5 μM compound, 0.5 mg/mL microsomes, NADPH, 37° C. How it is done:
Incubations of test compounds in DMSO, diluted with phosphate buffer, pH 7.4, at 0.5 μM were carried out with human liver microsomes (0.5 mg/mL). The percentage of organic solvent in the incubations was 1%. The human liver microsomal suspension in phosphate buffer was mixed with NADPH (1 mM) and preheated to 37° C. before test compound was added. Aliquots were taken at 0, 5, 10, 20 and 30 minutes, and reactions were terminated by addition of methanol containing analytical internal standard (IS).
The results were expressed as apparent clearance (Clapp) (mL/min/kg) and hepatic extraction ratio (Eh) (%) calculated from the rate constant (k) (min^−1) of test compound depletion.
(In general: Liver microsomes are a subcellular fraction often used to study metabolism.)

The subject of data set [3] is TNF alpha release from human PBMCs. In words: Inhibition of TNF alpha release from human PBMCs. Type of data set: cell-based. To be noted: LPS 1 μg/ml, 18 hours, AlphaLISA. As to the method: PBMC were isolated from fresh buffy coats by density centrifugation using lymphoprep (Medinor AB, cat no 1019818) tubes. Isolated PBMCs were washed in assay medium (RPMI1640 with 25 mM HEPES, 1% pen/strep, 200 mM L glutamine and 10% Foetal calf serum). Surplus PBMCs were frozen in medium containing extra 10% foetal calf serum and 5% DMSO. On the assay day, fresh cells or cryopreserved cells after thawing were washed in serum free medium (RPMI1640 with 25 mM HEPES, 1% pen/strep, 200 mM L glutamine and 0.5% human serum albumin) and counted, in order to determine the fraction of living cells (generally >95%).
Test compounds were diluted in DMSO over seven orders of magnitude, further diluted in serum-free medium and distributed into wells of 384 well tissue culture plates. LPS was added to a final concentration of 1 μg/ml to the cells. Immediately thereafter titrated test compounds were added and incubated for 18 hours at 37° C.
The level of TNF-a in the culture supernatant was quantitated by AlphaLISA (Perkin Elmer). 2-(3,5-dichloro-4-pyridinyl)-1-(7-methoxyspiro[1,3-benzodioxole-2,1′-cyclopentan]-4-yl)-ethanone (CAS 185406-34-2) at 100×IC50 was used to define the assay window.
Data were processed by sigmoidal curve fitting. EC50 and Emax were determined from the curve fits.
(Alpha assays give light when donor and acceptor beads are brought close together.)

On to `C[C@H](NC(=O)c1cscn1)[C@H](Oc1ccc(C(=O)O[C@H]2CCCN(C(=O)[C@H]3COC(=O)C3)C2)cc1)c1ccc(C2CC2)cc1` [Compound 55, [(3S)-1-[(3R)-5-oxotetrahydrofuran-3-carbonyl]-3-piperidyl] 4-[(1R,2S)-1-(4-cyclopropylphenyl)-2-(thiazole-4-carbonylamino)propoxy]benzoate], for which the IC50 in data set [1] was under 100 nM. In addition, in data set [2], the “HLM assay Eh (%)” value is on record as “* (extraction ratio (Eh)>90%)”. In data set [3] (PBMC), this compound displayed an EC50 of under 100 nM.

`Cc1scnc1C(=O)N[C@@H](C)[C@H](Oc1ccc(C(=O)O[C@H]2CCCN(C(=O)[C@H]3COC(=O)C3)C2)cc1)c1ccc(C2CC2)cc1` [Compound 29, [(3S)-1-[(3R)-5-oxotetrahydrofuran-3-carbonyl]-3-piperidyl] 4-[(1R,2S)-1-(4-cyclopropylphenyl)-2-[(5-methylthiazole-4-carbonyl)amino]propoxy]benzoate]: in data set [1], the IC50 was under 100 nM. For the same compound, the “HLM assay Eh (%)” value in data set [2] is reported as “* (extraction ratio (Eh)>90%)”. In addition, the EC50 in data set [3] (PBMC) was under 100 nM.

Take `Cc1ncc(C(=O)N[C@@H](C)[C@H](Oc2ccc(C(=O)O[C@H]3CCCN(C(=O)[C@H]4COC(=O)C4)C3)cc2)c2ccc(C3CC3)cc2)s1` [Compound 36, [(3S)-1-[(3R)-5-oxotetrahydrofuran-3-carbonyl]-3-piperidyl] 4-[(1R,2S)-1-(4-cyclopropylphenyl)-2-[(2-methylthiazole-5-carbonyl)amino]propoxy]benzoate]: the IC50 in data set [1] was under 100 nM. For the same compound, the “HLM assay Eh (%)” value in data set [2] is listed as “* (extraction ratio (Eh)>90%)”. Moreover, the EC50 in data set [3] (PBMC) was under 100 nM.

For the compound `C[C@H](NC(=O)[C@H]1CCCO1)[C@H](Oc1ccc(C(=O)N[C@H]2CCCN(C(=O)[C@H]3COC(=O)C3)C2)nc1)c1ccc(C2CC2)cc1` [Compound 22, 5-[(1R,2S)-1-(4-cyclopropylphenyl)-2-[[(2R)-tetrahydrofuran-2-carbonyl]amino]propoxy]-N-[(3S)-1-[(3R)-5-oxotetrahydrofuran-3-carbonyl]-3-piperidyl]pyridine-2-carboxamide], the IC50 in data set [1] is under 100 nM. The “HLM assay Eh (%)” value in data set [2] is “* (extraction ratio (Eh)>90%)”. Moreover, the EC50 in data set [3] (PBMC) is under 100 nM.

Turning to `C[C@H](NC(=O)C(C)(F)F)[C@H](Oc1ccc(C(=O)O[C@H]2CCCN(C(=O)[C@H]3COC(=O)C3)C2)cc1)c1ccc(C2CC2)cc1` [Compound 58, [(3S)-1-[(3R)-5-oxotetrahydrofuran-3-carbonyl]-3-piperidyl] 4-[(1R,2S)-1-(4-cyclopropylphenyl)-2-(2,2-difluoropropanoylamino)propoxy]benzoate], the IC50 in data set [1] was under 100 nM. Further, in data set [2], the “HLM assay Eh (%)” value is reported as “* (extraction ratio (Eh)>90%)”. The EC50 in data set [3] (PBMC) is under 100 nM.

Take `Cc1nc(C(=O)N[C@@H](C)[C@H](Oc2ccc(C(=O)O[C@H]3CCCN(C(=O)[C@H]4COC(=O)C4)C3)cc2)c2ccc(C3CC3)cc2)no1` [Compound 42, [(3S)-1-[(3R)-5-oxotetrahydrofuran-3-carbonyl]-3-piperidyl] 4-[(1R,2S)-1-(4-cyclopropylphenyl)-2-[(5-methyl-1,2,4-oxadiazole-3-carbonyl)amino]propoxy]benzoate]: the IC50 in data set [1] was under 100 nM. For the same compound, the “HLM assay Eh (%)” value in data set [2] is reported as “* (extraction ratio (Eh)>90%)”. In data set [3] (PBMC), this compound had a concentration for a half-maximal effect (EC50) of under 100 nM.

Consider `C[C@H](NC(=O)c1ncco1)[C@H](Oc1ccc(C(=O)N[C@H]2CCCN(C(=O)[C@H]3COC(=O)C3)C2)nc1)c1ccc(C2CC2)cc1` [Compound 6, N-[(1S,2R)-2-(4-cyclopropylphenyl)-1-methyl-2-[[6-[[(3S)-1-[(3R)-5-oxotetrahydrofuran-3-carbonyl]-3-piperidyl]carbamoyl]-3-pyridyl]oxy]ethyl]oxazole-2-carboxamide], for which the IC50 in data set [1] was under 100 nM. Also, the “HLM assay Eh (%)” value in data set [2] was “* (extraction ratio (Eh)>90%)”. In addition, the EC50 in data set [3] (PBMC) was under 100 nM.

In the case of `C[C@H](NC(=O)c1ccns1)[C@H](Oc1ccc(C(=O)O[C@H]2CCCN(C(=O)[C@H]3COC(=O)C3)C2)cc1)c1ccc(C2CC2)cc1` [Compound 47, [(3S)-1-[(3R)-5-oxotetrahydrofuran-3-carbonyl]-3-piperidyl] 4-[(1R,2S)-1-(4-cyclopropylphenyl)-2-(isothiazole-5-carbonylamino)propoxy]benzoate], in data set [1], the IC50 is under 100 nM. The “HLM assay Eh (%)” value in data set [2] is recorded as “* (extraction ratio (Eh)>90%)”. In data set [3] (PBMC), this compound displayed an EC50 of under 100 nM.

For `C[C@H](NC(=O)c1cnnn1C)[C@H](Oc1ccc(C(=O)O[C@H]2CCCN(C(=O)[C@H]3COC(=O)C3)C2)cc1)c1ccc(C2CC2)cc1` [Compound 38, [(3S)-1-[(3R)-5-oxotetrahydrofuran-3-carbonyl]-3-piperidyl] 4-[(1R,2S)-1-(4-cyclopropylphenyl)-2-[(3-methyltriazole-4-carbonyl)amino]propoxy]benzoate], in data set [1], the IC50 was under 100 nM. In addition, in data set [2], the “HLM assay Eh (%)” value is “* (extraction ratio (Eh)>90%)”. In data set [3], this compound showed an EC50 of 100 to 300 nM.

Take `C[C@H](NC(=O)c1ccno1)[C@H](Oc1ccc(C(=O)O[C@H]2CCCN(C(=O)[C@H]3COC(=O)C3)C2)cc1)c1ccc(C2CC2)cc1` [Compound 54, [(3S)-1-[(3R)-5-oxotetrahydrofuran-3-carbonyl]-3-piperidyl] 4-[(1R,2S)-1-(4-cyclopropylphenyl)-2-(isoxazole-5-carbonylamino)propoxy]benzoate]: the IC50 in data set [1] was under 100 nM. The “HLM assay Eh (%)” value in data set [2] is reported as “* (extraction ratio (Eh)>90%)”. Further, in data set [3] (PBMC), the concentration for a half-maximal effect (EC50) is under 100 nM.

`Cc1nonc1C(=O)N[C@@H](C)[C@H](Oc1ccc(C(=O)O[C@H]2CCCN(C(=O)[C@H]3COC(=O)C3)C2)cc1)c1ccc(C2CC2)cc1` [Compound 28, [(3S)-1-[(3R)-5-oxotetrahydrofuran-3-carbonyl]-3-piperidyl] 4-[(1R,2S)-1-(4-cyclopropylphenyl)-2-[(4-methyl-1,2,5-oxadiazole-3-carbonyl)amino]propoxy]benzoate]: the IC50 in data set [1] was under 100 nM. The “HLM assay Eh (%)” value in data set [2] was “* (extraction ratio (Eh)>90%)”. In addition, in data set [3] (PBMC), the EC50 is under 100 nM.

In the case of `C[C@H](NC(=O)c1ccn(C)n1)[C@H](Oc1ccc(C(=O)O[C@H]2CCCN(C(=O)[C@H]3COC(=O)C3)C2)cc1)c1ccc(C2CC2)cc1` [Compound 57, [(3S)-1-[(3R)-5-oxotetrahydrofuran-3-carbonyl]-3-piperidyl] 4-[(1R,2S)-1-(4-cyclopropylphenyl)-2-[(1-methylpyrazole-3-carbonyl)amino]propoxy]benzoate], the IC50 in data set [1] was under 100 nM. For the same compound, the “HLM assay Eh (%)” value in data set [2] is “* (extraction ratio (Eh)>90%)”. In addition, in data set [3] (PBMC), the EC50 was under 100 nM.

Take `Cc1cc(C(=O)N[C@@H](C)[C@H](Oc2ccc(C(=O)O[C@H]3CCCN(C(=O)[C@H]4COC(=O)C4)C3)cc2)c2ccc(C3CC3)cc2)on1` [Compound 41, [(3S)-1-[(3R)-5-oxotetrahydrofuran-3-carbonyl]-3-piperidyl] 4-[(1R,2S)-1-(4-cyclopropylphenyl)-2-[(3-methylisoxazole-5-carbonyl)amino]propoxy]benzoate]: the IC50 in data set [1] is under 100 nM. Besides, in data set [2], the “HLM assay Eh (%)” value is “* (extraction ratio (Eh)>90%)”. In data set [3] (PBMC), the EC50 was under 100 nM.
